Here are results for four molecules from patent US6808909B2, “Thermostable phytase with 2.1 Å . . . crystal structure” (Korea Research Institute of Bioscience and Biotechnology, priority 2000, dated 2004).

In this test the target is T1, phytase derived from B. amyloliquefaciens DS-11 (Bacillus sp., UniProt O66037).
T1 construct: made in house; host or cells: Bacillus subtilis DB104/pJPK
T1 sequence (O66037 31-383): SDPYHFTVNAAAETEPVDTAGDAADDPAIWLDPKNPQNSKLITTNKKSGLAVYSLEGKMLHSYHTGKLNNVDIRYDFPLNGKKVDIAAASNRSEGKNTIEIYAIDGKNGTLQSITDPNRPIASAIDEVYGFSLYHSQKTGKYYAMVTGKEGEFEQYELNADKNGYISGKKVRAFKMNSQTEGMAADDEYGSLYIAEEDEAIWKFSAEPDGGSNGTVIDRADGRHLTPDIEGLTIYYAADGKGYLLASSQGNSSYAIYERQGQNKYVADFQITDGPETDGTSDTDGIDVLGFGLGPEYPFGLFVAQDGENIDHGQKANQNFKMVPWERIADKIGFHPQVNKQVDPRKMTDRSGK
In words: Activity of the phytase on phytate and myo-inositol monophosphate substrates. Format: biochemical. The following applies: 2 mM substrate, 37° C. for 15 min, 20 mM Tris/HCl (pH7.0) buffer; relative to phytate = 100. As to the method:
The activities of the phytase derived from B. amyloliquefaciens DS11 were measured on its 2 mM substrates of myo-inositol, hexaphosphate, mio-inositol 1-monophosphate, mio-inositol 2-monophosphate, myo-inositol 4-monophosphate, after incubating at 37° C. for 15 min in a 20 mM Tris/HCl (pH7.0) buffer.
On to `O=P(O)(O)OC1[C@H](O)[C@H](O)C(O)[C@H](O)[C@H]1O` (stereo partly shown) [1′-monophosphoinositol, mio-inositol 1-monophosphate], for which the “Relative Enzyme Activity (%)” value stood at 27%.

Regarding `O=P(O)(O)OC1[C@@H](O)[C@H](O)C(O)[C@H](O)[C@H]1O` (stereo partly shown) [2′-monophosphoinositol, mio-inositol 2-monophosphate], the “Relative Enzyme Activity (%)” value amounted to 28%.

`O=P(O)(O)OC1[C@@H](O)[C@@H](O)C(O)[C@H](O)[C@H]1O` (stereo partly shown) [4′-monophosphoinositol, myo-inositol 4-monophosphate]: the “Relative Enzyme Activity (%)” value worked out at 40%.

On to `O=P(O)(O)O[C@H]1[C@H](OP(=O)(O)O)[C@@H](OP(=O)(O)O)[C@H](OP(=O)(O)O)[C@@H](OP(=O)(O)O)[C@H]1OP(=O)(O)O` [Phytate, myo-inositol, hexaphosphate], for which the “Relative Enzyme Activity (%)” value came to 100%.
